In patent US20240108740A1, “THERAPEUTIC COMPOSITIONS INCLUDING SPN10 AND USES THEREOF” (Stealth BioTherapeutics Inc., priority 2022, published 2024):
Residues, ends and D or L forms follow the SMILES beside them.

Legend:
[1] = tested on: Caco-2 cells (human intestinal epithelial cells); assay type: in vitro ADME
Experimental: The cellular uptake of [^3H] SPN10(s) (with or without aromatic-cationic peptides) or [^3H] peptide conjugates will be studied using Caco-2 cells (human intestinal epithelial cells), and confirmed using SH-SY5Y (human neuroblastoma), HEK293 (human embryonic kidney) and CRFK (kidney epithelial) cells. Monolayers of cells will be cultured in 12-well plates (5×10^5 cells/well) coated with collagen for 3 days. On day 4, the cells will be washed twice with pre-warmed HBSS, and incubated with 0.2 mL of HBSS containing 250 nM [^3H] peptide conjugates; [^3H] aromatic-cationic peptides (an equivalent molar dose of aromatic-cationic peptide based on the concentration of the aromatic-cationic peptide administered in the peptide conjugate treatment group); [^3H] SPN10(s) (an equivalent molar dose of SPN10 based on the concentration of SPN10 administered in the peptide conjugate treatment group); or SPN10(s) in combination with aromatic-cationic peptides (e.g., an equivalent molar dose of SPN10 based on the concentration of SPN10 administered in the peptide conjugate treatment group and an equivalent molar dose of aromatic-cationic peptide based on the concentration of aromatic-cationic peptide administered in the peptide conjugate treatment group) at 37° C. or 4° C. for various times up to 1 hour. […] The cell lysates will then be transferred to scintillation vials and radioactivity will be counted. To distinguish between internalized radioactivity and surface-associated radioactivity, an acid-wash step will be included. […] Excitation will be performed at 340 nm by means of a UV laser, and emission will be measured at 520 nm. […]

mice treated with Mtox = assay: Example 31: Mtox model of Parkinson's Disease; assay type: in vivo, mouse; conditions: Mtox 10 mg/kg, three doses
Experimental: Three doses of Mtox (10 mg/kg) will be given to mice (n=12) 2 hours apart. Peptide conjugates, aromatic-cationic peptides, or SPN10(s) with or without aromatic-cationic peptides will be administered 30 minutes before each Mtox injection, and at 1 and 12 hours after the last Mtox injection. Animals will be sacrificed one week later and striatal brain regions will be immunostained for tyrosine hydroxylase activity. Levels of dopamine, DOPAC and HVA levels will be quantified by high pressure liquid chromatography.

Sprague-Dawley rats = assay: Example 42: CCl4-induced chronic nephrotoxicity; assay type: in vivo, rat
Excerpt: […]
Renal Histology: Kidneys will be fixed in 10% neutral-buffered formalin and embedded in paraffin wax for sectioning. Three-micron sections will be stained with hematoxylin-eosin (H&E) and analyzed by light microscopy by a certified pathologist.

[2] = tested on: isolated mitochondrial, cultured cells and animal subjects; assay: Mitochondrial reduction potential; conditions: in vitro and in vivo
Excerpt: It is anticipated that SPN10(s) (with or without aromatic-cationic peptides) and conjugates will enhance mitochondrial reduction potential in vitro in isolated mitochondrial and in vivo in cultured cells and animal subjects.

## N=C(N)NCCC[C@H](NC(=O)[C@@H](N)Cc1c[nH]c2ccccc12)C(=O)N[C@@H](Cc1c[nH]c2ccccc12)C(=O)N[C@@H](CCCCN)C(N)=O [SPN10, H-L-Trp-L-Arg-L-Trp-L-Lys-NH2] (H-WRWK-NH2)
[1]
  rate of uptake at 4° C. compared to 37° C.: slower
  saturation of uptake by 45 minutes: 76.5%
  saturation of uptake by 1 hour: 86.3%
Mice treated with Mtox
  loss of dopaminergic neurons: dose-dependently prevent the loss of dopaminergic neurons
  striatal dopamine, DOPAC, and HVA levels: dose-dependently increase striatal dopamine, DOPAC, and HVA levels
Sprague-Dawley rats; rat, in vivo
  histopathological changes (H&E) compared to untreated control animals of Group (1): no significant histopathological changes
Sprague-Dawley rats; s.c. 5 days per week, 7 weeks
  protection of renal tubules from CCl4 nephrotoxicity: protect renal tubules from CCl4 nephrotoxicity
[2]
  mitochondrial reduction potential: enhance
